Values after ≈ are worked out from the molar mass of the structure shown.
Tests used:
Parameters in all cases: agar dilution MIC, growth inhibition of clinical Burkholderia isolates
B. ambifaria AU19862 = system: T1, B. ambifaria AU19862; test: microbe, parasite or virus in culture; conditions: Burkholderia ambifaria, AU19862
T1 construct: AU19862
Method in brief: (§1)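 MICs by agar dilution against Bcc and B. gladioli clinical isolates, interpreted with CLSI breakpoints where available; K. pneumoniae ATCC 700603 (SHV-18) and ATCC BAA-1705 (KPC) served as quality controls.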

B. ambifaria AU20319 = system: T2, B. ambifaria AU20319; test: microbe, parasite or virus in culture; conditions: Burkholderia ambifaria, AU20319
T2 construct: AU20319
Method in brief: as §1

B. ambifaria AU5203 = system: T3, B. ambifaria AU5203; test: microbe, parasite or virus in culture; conditions: Burkholderia ambifaria, AU5203
T3 construct: AU5203
Method in brief: as §1

B. cenocepacia AU13262 = system: T4, B. cenocepacia AU13262; test: microbe, parasite or virus in culture; conditions: Burkholderia cenocepacia, AU13262
T4 construct: AU13262
Method in brief: as §1

B. cenocepacia AU19276 = system: T5, B. cenocepacia AU19276; test: microbe, parasite or virus in culture; conditions: Burkholderia cenocepacia, AU19276
T5 construct: AU19276
Method in brief: as §1

B. cenocepacia AU19684 = system: T6, B. cenocepacia AU19684; test: microbe, parasite or virus in culture; conditions: Burkholderia cenocepacia, AU19684
T6 construct: AU19684
Method in brief: as §1

B. cenocepacia AU20545 = system: T7, B. cenocepacia AU20545; test: microbe, parasite or virus in culture; conditions: Burkholderia cenocepacia, AU20545
T7 construct: AU20545
Method in brief: as §1

B. cenocepacia AU21083 = system: T8, B. cenocepacia AU21083; test: microbe, parasite or virus in culture; conditions: Burkholderia cenocepacia, AU21083
T8 construct: AU21083
Method in brief: as §1

B. cepacia AU0329 = system: T9, B. cepacia AU0329; test: microbe, parasite or virus in culture; conditions: Burkholderia cepacia, AU0329
T9 construct: AU0329
Method in brief: as §1

B. cepacia AU15677 = system: T10, B. cepacia AU15677; test: microbe, parasite or virus in culture; conditions: Burkholderia cepacia, AU15677
T10 construct: AU15677
Method in brief: as §1

B. contaminans AU15669 = system: T11, B. contaminans AU15669; test: organism not typed
T11 construct: AU15669
Method in brief: as §1

B. contaminans AU21811 = system: T12, B. contaminans AU21811; test: organism not typed
T12 construct: AU21811
Method in brief: as §1

B. contaminans AU25403 = system: T13, B. contaminans AU25403; test: organism not typed
T13 construct: AU25403
Method in brief: as §1

B. multivorans AU11233 = system: T14, B. multivorans AU11233; test: microbe, parasite or virus in culture; conditions: Burkholderia multivorans, AU11233
T14 construct: AU11233
Method in brief: as §1

B. multivorans AU14328 = system: T15, B. multivorans AU14328; test: microbe, parasite or virus in culture; conditions: Burkholderia multivorans, AU14328
T15 construct: AU14328
Method in brief: as §1

B. multivorans AU20929 = system: T16, B. multivorans AU20929; test: microbe, parasite or virus in culture; conditions: Burkholderia multivorans, AU20929
T16 construct: AU20929
Method in brief: as §1

B. multivorans AU23995 = system: T17, B. multivorans AU23995; test: microbe, parasite or virus in culture; conditions: Burkholderia multivorans, AU23995
T17 construct: AU23995
Method in brief: as §1

B. multivorans AU28069 = system: T18, B. multivorans AU28069; test: microbe, parasite or virus in culture; conditions: Burkholderia multivorans, AU28069
T18 construct: AU28069
Method in brief: as §1

B. multivorans AU30050 = system: T19, B. multivorans AU30050; test: microbe, parasite or virus in culture; conditions: Burkholderia multivorans, AU30050
T19 construct: AU30050
Method in brief: as §1

B. vietnamiensis AU28056 = system: T20, B. vietnamiensis AU28056; test: microbe, parasite or virus in culture; conditions: Burkholderia vietnamiensis, AU28056
T20 construct: AU28056
Method in brief: as §1

B. vietnamiensis AU3578 = system: T21, B. vietnamiensis AU3578; test: microbe, parasite or virus in culture; conditions: Burkholderia vietnamiensis, AU3578
T21 construct: AU3578
Method in brief: as §1

B. vietnamiensis AU5003 = system: T22, B. vietnamiensis AU5003; test: microbe, parasite or virus in culture; conditions: Burkholderia vietnamiensis, AU5003
T22 construct: AU5003
Method in brief: as §1

Row | SMILES | MIC (B. ambifaria AU19862) [µg/mL] | MIC (B. ambifaria AU20319) [µg/mL] | MIC (B. ambifaria AU5203) [µg/mL] | MIC (B. cenocepacia AU13262) [µg/mL] | MIC (B. cenocepacia AU19276) [µg/mL] | MIC (B. cenocepacia AU19684) [µg/mL] | MIC (B. cenocepacia AU20545) [µg/mL] | MIC (B. cenocepacia AU21083) [µg/mL] | MIC (B. cepacia AU0329) [µg/mL] | MIC (B. cepacia AU15677) [µg/mL] | MIC (B. contaminans AU15669) [µg/mL] | MIC (B. contaminans AU21811) [µg/mL] | MIC (B. contaminans AU25403) [µg/mL] | MIC (B. multivorans AU11233) [µg/mL] | MIC (B. multivorans AU14328) [µg/mL] | MIC (B. multivorans AU20929) [µg/mL] | MIC (B. multivorans AU23995) [µg/mL] | MIC (B. multivorans AU28069) [µg/mL] | MIC (B. multivorans AU30050) [µg/mL] | MIC (B. vietnamiensis AU28056) [µg/mL] | also measured
1 | CO/N=C(\C(=O)N[C@@H]1C(=O)N2C(C(=O)[O-])=C(C[N+]3(C)CCCC3)CS[C@H]12)c1csc(N)n1 [cefepime] | 16 (≈ 33.3 µM) | > 32 | 16 (≈ 33.3 µM) | > 32 | 8 (≈ 16.6 µM) | > 32 | 8 (≈ 16.6 µM) | 16 (≈ 33.3 µM) | > 32 | 32 (≈ 66.6 µM) | > 32 | > 32 | 8 (≈ 16.6 µM) | > 32 | 8 (≈ 16.6 µM) | 8 (≈ 16.6 µM) | > 32 | 8 (≈ 16.6 µM) | 2 (≈ 4.16 µM) | 16 (≈ 33.3 µM) | MIC (B. vietnamiensis AU3578): > 32 µg/mL; MIC (B. vietnamiensis AU5003): > 32 µg/mL
2 | C[C@@H](O)[C@H]1C(=O)N2C(C(=O)O)=C(S[C@@H]3CN[C@H](C(=O)N(C)C)C3)[C@H](C)[C@H]12 [meropenem] | 2 (≈ 5.22 µM) | 4 (≈ 10.4 µM) | 4 (≈ 10.4 µM) | 4 (≈ 10.4 µM) | 2 (≈ 5.22 µM) | 8 (≈ 20.9 µM) | 2 (≈ 5.22 µM) | 4 (≈ 10.4 µM) | 2 (≈ 5.22 µM) | 4 (≈ 10.4 µM) | 16 (≈ 41.7 µM) | 16 (≈ 41.7 µM) | 2 (≈ 5.22 µM) | 8 (≈ 20.9 µM) | 4 (≈ 10.4 µM) | 8 (≈ 20.9 µM) | 8 (≈ 20.9 µM) | 4 (≈ 10.4 µM) | 2 (≈ 5.22 µM) | 4 (≈ 10.4 µM) | MIC (B. vietnamiensis AU3578): 4 µg/mL (≈ 10.4 µM); MIC (B. vietnamiensis AU5003): 4 µg/mL (≈ 10.4 µM)
3 | C[C@H]1COc2c(N3CCN(C)CC3)c(F)cc3c(=O)c(C(=O)O)cn1c23 [levofloxacin] | 8 (≈ 22.1 µM) | 1 (≈ 2.77 µM) | > 32 | 4 (≈ 11.1 µM) | 0.5 (≈ 1.38 µM) | > 32 | 2 (≈ 5.53 µM) | 2 (≈ 5.53 µM) | > 32 | 4 (≈ 11.1 µM) | 8 (≈ 22.1 µM) | 8 (≈ 22.1 µM) | 2 (≈ 5.53 µM) | 16 (≈ 44.3 µM) | 2 (≈ 5.53 µM) | 4 (≈ 11.1 µM) | 4 (≈ 11.1 µM) | 4 (≈ 11.1 µM) | 1 (≈ 2.77 µM) | 8 (≈ 22.1 µM) | MIC (B. vietnamiensis AU3578): 8 µg/mL (≈ 22.1 µM); MIC (B. vietnamiensis AU5003): 8 µg/mL (≈ 22.1 µM)
